# Test results: US20090138208A1, “IMMUNOGLOBULIN G BINDING POCKET” (GE HEALTHCARE BIO-SCIENCES AB, priority 2002, published 2009)
# Key:
# human Fab of κ-type = human Fab of κ-type (Homo sapiens, UniProt P01834+P01857); assay: STD NMR screening (1D saturation transfer difference) for binding to antibody; set-up: key: 0 no; 1 weak; 2 strong signal; conditions: 0.5 mM ligand; for NMR signal conc 2: 100 nM antibody; for NMR signal conc 1: 500 nM antibody, 298 K
# Experimental: All NMR experiments were performed at 298 K on a Bruker Avance 500 MHz spectrometer. The 1D saturation transfer difference method (STD NMR) was used as screening assay (Mayer M. and Meyer B. 1999. Characterization of Ligand Binding by Saturation Transfer Difference NMR Spectroscopy. Angew. Chem., Int. Ed. 38: 1784-1788) using several antibody concentrations in order to differentiate between compounds with different binding strength (Peng J. W., Lepre C. A., Fejzo J., Abdul-Manan N. and Moore J. M. 2001. Nuclear Magnetic Resonance-Based Approaches for Lead Generation in Drug Discovery. Methods in Enzymology. 338: 202-230). The antibody used was a human Fab of κ-type. In all cases ligands were tested one-by-one. On-resonance irradiation was set at 0 ppm and off-resonance irradiation was set at −40 ppm. Irradiation time in each scan was 2 s and 16 K data points were collected with 1024 scans in total. Compounds for testing were dissolved in DMSOd6 to a concentration of 50 mM and 5 μL of the concentrated ligand solution was added to 495 μL buffer solution. The samples thus consisted of 0.5 mM ligand, 20 mM phosphate buffer, 100 mM NaCl and […] in D2O at pD 7.5, uncorrected reading on pH-meter.
# Compounds were initially tested for binding with 0.5 μM antibody. Interesting ligands were further tested with protein concentrations of 100 or 20 nM. A one-dimensional ^1H-spectrum was acquired first and subsequently a saturation transfer difference (STD) spectrum was acquired. Each analysis took 60 minutes on the spectrometer. […] The analysis was setup for automation so that several samples could be analysed over night (usually 10-15 samples/night).
# As many as 46 of the virtual screening hits were tested with NMR according to the procedure described above. The results from NMR screening together with additional compound data are compiled in Table 1 below. In total 24 compounds gave a positive result in the first round with the highest antibody concentration (500 nM). These 24 compounds were subjected to a second round with an antibody concentration of 100 nM. The 4 compounds showing the strongest signal in the second round were tested for binding in a third round with 20 nM antibody. Three of the compounds in the third round gave a positive result and where thus designated as the strongest binders to the antibody out of the 46 tested compounds.
# [1] = test system: Fab fragment of lambda-type; assay: STD NMR control with Fab fragment of lambda-type; type: binding; conditions: tested as in Example 2 with lambda-type Fab
# Experimental: Apart from the different Fab fragment, the testing was performed as described above in Example 2.
# [2] = test system: F(ab′)2 fragment of a different specificity (kappa); assay: STD NMR control with F(ab′)2 fragment of a different specificity; type: binding; conditions: 1 μM protein; different variable part from Example 2
# Experimental: The present example was performed with a F(ab′)2 fragment of a different specificity, i.e. a different variable part, from the one used in Example 2 above in order to verify that binding of one the selected compounds still occurred.
# The testing was performed as described above in Example 2, but this time using 1 μM protein and using compound AB—0000860 as defined above in table 1. The results were positive, which implies that there is an interaction between AB—0000860 and at least two kappa Fab fragments of different specificities.
# human Fab of κ-type, sequence (P01857 with tags, fused parts or gaps, other chains not shown): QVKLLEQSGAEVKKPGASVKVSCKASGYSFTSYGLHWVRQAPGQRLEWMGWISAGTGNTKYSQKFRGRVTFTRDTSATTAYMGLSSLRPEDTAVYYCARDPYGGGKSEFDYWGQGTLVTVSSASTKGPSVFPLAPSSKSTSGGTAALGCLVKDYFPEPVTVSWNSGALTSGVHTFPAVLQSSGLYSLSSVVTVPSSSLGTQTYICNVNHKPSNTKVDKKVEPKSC
Structure (SMILES),NMR signal conc 3 (human Fab of κ-type; 20 nM antibody),NMR signal conc 2 (human Fab of κ-type),NMR signal conc 1 (human Fab of κ-type),binding to lambda-type Fab (STD NMR result) [1],binding to F(ab′)2 fragment (STD NMR result) [2]
"O=C1CN(c2ccccc2)C(=O)N1c1ccccc1 [AB_0000860, 1,3-diphenylimidazolidine-2,4-dione]",1,2,2,negative,positive
"Clc1ccc(OCc2noc(CSc3ccccn3)n2)cc1 [AB_0001290, 3-[(4-chlorophenoxy)methyl]-5-[(2-pyridylthio)methyl]-1,2,4-oxadiazole]",–,1,2,–,–
"O=C(Cc1ncon1)Nc1ccc(F)c(F)c1F [AB_0000630, n1-(2,3,4-trifluorophenyl)-2-(1,2,4-oxadiazol-3-yl)acetamide]",–,–,0,–,–
"O=C(Nc1ccc(F)cc1)Oc1noc(-c2ccccc2)n1 [AB_0000740, 5-phenyl-1,2,4-oxadiazol-3-yl n-(4-fluorophenyl)carbamate]",–,–,0,–,–
"O=C1C=CC(=O)N1c1cccc(Cl)c1 [AB_0001090, n-(3-chlorophenyl)-maleimide]",–,0,1,–,–
